Read-outs that look alike come from different tables or passages of the source.
Experiments:
[1] = cited from earlier work
[2] = system: women with mastalgia; conditions: cited from earlier work; for patients reporting headaches: 6 month study
[3] = Example 5: daily feed consumption and weight during 2 months of daily dosing; type: in vivo, Sprague-Dawley rats; conditions: 2 months daily dosing, .06 to 2 mg I2/kg/day
Excerpt: A total of 24 nulliparous and nonpregnant female Sprague-Dawley rats were received from Charles River Laboratories, Kingston, N.Y. The animals were 10 weeks of age and were examined for signs of disease or injury upon receipt. The animals were housed in stainless steel cages and fed LabDiet™ Certified Rodent Chow 5002 (PMI Feeds, Inc., a subsidiary of Purina Mills, Inc.) ad libitum and were provided fresh filtered tap water ad libitum. Environmental controls were set to maintain a temperature of 18 to 26° C. and a relative humidity of 30 to 70%. A 12-hour light/dark cycle was employed and the room underwent a minimum of ten fresh air changes/hour.
The animals were allowed to acclimate to laboratory conditions for 2 weeks. No abnormal findings excluding animals from study were noted. The animals were released from conditioning following an examination. Each animal was identified with a unique number that was indicated by ear punch. Cage labels, color-coded by group, identified each cage. The animals were maintained at laboratory conditions for an additional 2 weeks and then randomized into treatment groups by weight.
Tablets of IoGen, a registered trademark of Symbollon Pharmaceuticals Inc. of Framingham Mass. USA were dissolved in distilled water. […]

[4] = system: euthyroid mastalgia patients; test: Example 1: multi-center, randomized, double-blind, placebo-controlled 6 month mastalgia study; type: in vivo, human; conditions: for change in the Lewin Overall pain scale: 6.0 mg/d
Protocol: A multi-center, randomized, double-blind, placebo-controlled study dosed patients for 6 months with 0.0, 1.5, 3.0 and 6.0 mg I2 daily. Healthy euthyroid mastalgia patients between the ages of 18 and 50 who were unresponsive to conservative treatments like OTC analgesics were eligible for the study. Subjects needed to identify a history of at least six months of moderate or severe breast pain and document at least 6 days per cycle of moderate or severe pain in a daily dairy (FIG. 1 below).

[5] = I2 compared to iodide, cited from earlier work
[6] = in drinking water, 100 days; cited from earlier work
[7] = system: iodine naive women; test: Example 3: I2 safety study, treatment emergent thyroid status in iodine naive women; type: in vivo, human; conditions: for Hyperthyroidism Overt ↓TSH ↑T4 / Hyperthyroidism Sub-clinical ↓TSH / Hypothyroidism Overt ↑TSH (5-10) ↓T4 / Hypothyroidism Overt ↑TSH (10-20) ↓T4 / Hypothyroidism Overt ↑TSH (>20) ↓T4 / Hypothyroidism Sub-clinical ↑TSH (5-10) / Hypothyroidism Sub-clinical ↑TSH (10-20) / Hypothyroidism Sub-clinical ↑TSH (>20): iodine naive, patients (percent of dose group)
Protocol: A second I2 safety study was conducted in women not previously exposed to iodine therapy (iodine naïve). […] Thyroid functions laboratory values were available for 365 patients. The age of the female participants ranged from 20 to 55; the average age was 42.4 years. Variations in treatment emergent thyroid status were evaluated based on TSH and T4 values (see Table 2). […] Patients were categorized sub-clinical hypothyroid if TSH was elevated and T4 values were normal; patients with depressed T4 values were considered overtly hypothyroid.
Sub-clinical hyperthyroidism is not correlated to an increased rate of either overt hyperthyroidism or overt hypothyroidism. On the other hand, it is well established that sub-clinical hypothyroidism is a risk factor for overt hypothyroidism. In fact, as stated in Example 2, antibodies to thyroid peroxidase combined with sub-clinical hypothyroidism are established risk factors for overt thyroid disease in women between the age of 30 and 50. Therefore the key question is whether or not dose is related to the frequency of sub-clinical hypothyroidism. Kendall's rank correlation was used to evaluate the relationship between dose and frequency of sub-clinical hypothyroidism.

[8] = system: breast cancer cell lines; conditions: cited from earlier work

Question: What does the source list for `II` [I2, molecular iodine]?
Answer: iodine uptake in thyroid compared to iodide ([1]; oral administration): half as much; reduction of thyroidal uptake by perchlorate ([1]; perchlorate 6 mg i.p., 2 hr predosing): 40%; patients reporting headaches ([2]; 1.5 mg/day group): 6.3%; patients reporting headaches ([2]; 3.0 mg/day group): 26%; patients reporting headaches ([2]; 6.0 mg/day group): 12%; change in five thyroid function tests (T3, T4, T uptake, TSH, FT3) ([2]; any treatment group): No statistically significant change; daily feed consumption or weight, placebo versus treated groups [3]: no statistically significant differences; change in the Lewin Overall pain scale ([4]; month 3): 45.4%; change in the Lewin Overall pain scale ([4]; month 6): 45.0%; magnitude of pain reduction versus dose ([4]; 1.5, 3.0, 6.0 mg daily, month 3 and month 6 (p<0.01)): increased with dose; difference among dosing groups in adverse events or thyroid related clinical chemistry tests ([4]; first 3 months of treatment): did not find any difference; percentage of administered iodine retained in the stomach contents and covalently bound to a lipid material [5]: larger percentage; percentage of iodine retained in thyroid 72 hours after administration, compared to iodide [5]: significantly less; retention of iodine in thyroid at 72 hours, less than with iodide ([5]; fasted rats, acute exposure): about 30%; suppressing thyroid uptake of a challenge dose of 125iodide [6]: less effective than iodide; Hyperthyroidism Overt ↓TSH ↑T4 ([7]; I2 2.0 mg/d): 0 (0.0); Hyperthyroidism Sub-clinical ↓TSH ([7]; I2 2.0 mg/d): 2 (3.4); Hypothyroidism Overt ↑TSH (5-10) ↓T4 ([7]; I2 2.0 mg/d): 1 (1.7); Hypothyroidism Overt ↑TSH (10-20) ↓T4 ([7]; I2 2.0 mg/d): 0 (0.0); Hypothyroidism Overt ↑TSH (>20) ↓T4 ([7]; I2 2.0 mg/d): 0 (0.0); Hypothyroidism Sub-clinical ↑TSH (5-10) ([7]; I2 2.0 mg/d): 3 (5.2); Hypothyroidism Sub-clinical ↑TSH (10-20) ([7]; I2 2.0 mg/d): 2 (3.4); Hypothyroidism Sub-clinical ↑TSH (>20) ([7]; I2 2.0 mg/d): 0 (0.0); Hyperthyroidism Overt ↓TSH ↑T4 ([7]; I2 3.0 mg/d): 2 (3.2); Hyperthyroidism Sub-clinical ↓TSH ([7]; I2 3.0 mg/d): 0 (0.0); Hypothyroidism Overt ↑TSH (5-10) ↓T4 ([7]; I2 3.0 mg/d): 0 (0.0); Hypothyroidism Overt ↑TSH (10-20) ↓T4 ([7]; I2 3.0 mg/d): 0 (0.0); Hypothyroidism Overt ↑TSH (>20) ↓T4 ([7]; I2 3.0 mg/d): 0 (0.0); Hypothyroidism Sub-clinical ↑TSH (5-10) ([7]; I2 3.0 mg/d): 5 (8.1); Hypothyroidism Sub-clinical ↑TSH (10-20) ([7]; I2 3.0 mg/d): 0 (0.0); Hypothyroidism Sub-clinical ↑TSH (>20) ([7]; I2 3.0 mg/d): 0 (0.0); Hyperthyroidism Overt ↓TSH ↑T4 ([7]; I2 6.0 mg/d): 0 (0.0); Hyperthyroidism Sub-clinical ↓TSH ([7]; I2 6.0 mg/d): 2 (3.3); Hypothyroidism Overt ↑TSH (5-10) ↓T4 ([7]; I2 6.0 mg/d): 0 (0.0); Hypothyroidism Overt ↑TSH (10-20) ↓T4 ([7]; I2 6.0 mg/d): 0 (0.0); Hypothyroidism Overt ↑TSH (>20) ↓T4 ([7]; I2 6.0 mg/d): 1 (1.7); Hypothyroidism Sub-clinical ↑TSH (5-10) ([7]; I2 6.0 mg/d): 6 (10); Hypothyroidism Sub-clinical ↑TSH (10-20) ([7]; I2 6.0 mg/d): 0 (0.0); Hypothyroidism Sub-clinical ↑TSH (>20) ([7]; I2 6.0 mg/d): 0 (0.0); Hyperthyroidism Overt ↓TSH ↑T4 ([7]; I2 9.0 mg/d): 2 (3.5); Hyperthyroidism Sub-clinical ↓TSH ([7]; I2 9.0 mg/d): 2 (3.5); Hypothyroidism Overt ↑TSH (5-10) ↓T4 ([7]; I2 9.0 mg/d): 2 (3.5); Hypothyroidism Overt ↑TSH (10-20) ↓T4 ([7]; I2 9.0 mg/d): 0 (0.0); Hypothyroidism Overt ↑TSH (>20) ↓T4 ([7]; I2 9.0 mg/d): 1 (1.8); Hypothyroidism Sub-clinical ↑TSH (5-10) ([7]; I2 9.0 mg/d): 8 (14); Hypothyroidism Sub-clinical ↑TSH (10-20) ([7]; I2 9.0 mg/d): 0 (0.0); Hypothyroidism Sub-clinical ↑TSH (>20) ([7]; I2 9.0 mg/d): 0 (0.0); Hyperthyroidism Overt ↓TSH ↑T4 ([7]; I2 .03 mg/d): 0 (0.0); Hyperthyroidism Sub-clinical ↓TSH ([7]; I2 .03 mg/d): 1 (1.5); Hypothyroidism Overt ↑TSH (5-10) ↓T4 ([7]; I2 .03 mg/d): 0 (0.0); Hypothyroidism Overt ↑TSH (10-20) ↓T4 ([7]; I2 .03 mg/d): 0 (0.0); Hypothyroidism Overt ↑TSH (>20) ↓T4 ([7]; I2 .03 mg/d): 0 (0.0); Hypothyroidism Sub-clinical ↑TSH (5-10) ([7]; I2 .03 mg/d): 3 (4.6); Hypothyroidism Sub-clinical ↑TSH (10-20) ([7]; I2 .03 mg/d): 0 (0.0); Hypothyroidism Sub-clinical ↑TSH (>20) ([7]; I2 .03 mg/d): 0 (0.0); relationship between daily dose and frequency of sub-clinical hypothyroidism ([7]; Kendall's rank correlation p 0.0167, Cuzik's trend test p less than 0.01): correlated to the frequency of sub-clinical hypothyroidism; Overt hypothyroidism, patients (second statement, compared to prevalence of overt hyperthyroidism) ([7]; iodine naive patients): 1.6%; incidence of abnormal thyroid function, placebo versus treatment groups ([7]; iodine naive patients, Fisher's exact test): did not differ; Overt hypothyroidism, patients ([7]; iodine naive patients, first statement): 1.3%; effect on estrogen receptor concentration [8]: reducing the concentration of estrogen receptor

— US20090017139A1, “Iodine therapy dosing for treating medical conditions” (priority 2007, published 2009)
